The results in this text go back to patent US8546376B2, “Pharmaceutical compounds” (Almac Discovery Limited, priority 2009, dated 2013).

pIC50: −log10 of the molar value. Structures can show the parent of a compound that is named as a salt.

Holding throughout (type): biochemical
The target of one assay is T1, AKT1 (Homo sapiens, UniProt P31749).
T1 construct: purchased SignalChem
The assay is described as follows: AKT Kinase Assay (IMAP fluorescent polarisation) vs AKT1. The note with it: activated AKT1, FAM Crosstide substrate. The method, then: (§1) Testing of the compounds was performed using an AKT Kinase Assay:
(§2) Activated AKT isoforms 1, 2 and 3 were assayed utilising a 5′ FAM Crosstide (Seq. GRPRTSSFAEG-OH). The extent of kinase phosphorylation was determined by fluorescent polarisation using IMAP progressive binding reagent, which introduces binding beads which allow the reagent to specifically bind to phosphate residues via covalent co-ordination complex bonds.
(§3) iMAP binding solution stops Crosstide/kinase interaction and specifically binds phosphorylated substrates. The degree of phosphorylation is determined by fluorescent polarisation (excitation 485 nm; emission 528 nm) or the reduction in speed of rotation of the excited substrate.
(§4) The following materials were used in the assay: • a) Activated AKT isoforms (SignalChem.) dissolved in Complete Reaction buffer at a pre-determined concentration selected so that the assay was carried out in the linear range. • b) AKT substrate peptide: FAM Crosstide (R7110) Molecular Devices, diluted in complete reaction buffer. • c) iMAP Progressive Screening Express Kit (R8127) Molecular Devices • d) Complete Reaction Buffer containing 0.1% BSA, 10 mM Tris-HCl, 10 mM MgCl2, 0.05% NaN3 and 0.01% phosphate free BSA, 1 mM DTT • e) Progressive Binding Solution containing 75% Buffer A, 25% Buffer B and low volume Binding Reagent which contains the binding entity for the assay • f) ATP diluted in complete reaction buffer • g) Black polystyrene 384 well assay plates (Nunc). • h) Biotek Synergy 4 Hybrid Plate reader.
(§5) 5 μl of test compound was dissolved in DMSO (Sigma Aldrich) and serially diluted in complete reaction buffer to give a fourteen point half log dose response and plated into 384 well black plates. The compound was incubated at room temperature with activated AKT isoform (5 μl) at the pre-determined concentration, for 45 minutes.
(§6) 2.5 μl of ATP solution mixed with 2.5 μl of AKT substrate peptide (FAM Crosstide (R7110) Molecular Devices) were dispensed into each well and the plate centrifuged at 1000 rpm for 20 seconds to ensure homogenous mixing of reagents. The reaction mix was incubated in the dark for one hour at room temperature.
(§7) The kinase reaction was stopped by the addition of Progressive Binding Solution and the mixture allowed to equilibrate for one hour in the dark, at room temperature.
(§8) The fluorescent polarisation generated in each well was determined using a […] Synergy 4 Hybrid plate reader. In brief, each reaction solution was excited at 485 nm with the emission measured at 528 nm in both the parallel and perpendicular pathway.
(§9) The polarisation value generated in each well was calculated by Gen5 software (Biotek) and the % inhibition of kinase activity compared to vehicle control was calculated via GraphPad Prism. IC50 values for each compound were calculated by non-linear regression analysis using Prism software.
(§10) All plates were internally controlled by two methods. Firstly, by calculating the signal:noise ratio; based on kinase polarisation without inhibitor and polarisation generated by complete reaction buffer in the absence of activated kinase. Secondly by determining IC50 values generated by known inhibitors of the AKT isoforms.

For another assay, the target named is T2, AKT2 (Homo sapiens, UniProt P31751).
T2 construct: purchased SignalChem
T2 sequence (P31751 whole entry): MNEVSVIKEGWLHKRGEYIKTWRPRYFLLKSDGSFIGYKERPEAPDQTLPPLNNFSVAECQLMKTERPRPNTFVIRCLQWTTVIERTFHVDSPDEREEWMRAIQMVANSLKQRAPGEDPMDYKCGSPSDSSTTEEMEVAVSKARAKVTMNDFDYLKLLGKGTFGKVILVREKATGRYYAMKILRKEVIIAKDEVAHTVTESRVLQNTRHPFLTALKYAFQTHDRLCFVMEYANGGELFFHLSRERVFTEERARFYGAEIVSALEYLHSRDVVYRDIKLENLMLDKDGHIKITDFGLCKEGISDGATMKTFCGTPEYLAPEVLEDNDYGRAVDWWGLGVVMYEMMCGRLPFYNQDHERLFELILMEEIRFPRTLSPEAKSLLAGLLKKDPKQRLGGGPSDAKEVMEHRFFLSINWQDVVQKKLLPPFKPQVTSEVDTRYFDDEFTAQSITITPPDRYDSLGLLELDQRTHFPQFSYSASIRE
The assay is described as follows: AKT Kinase Assay (IMAP fluorescent polarisation) vs AKT2. Particulars: activated AKT2, FAM Crosstide substrate. The method, then:
as §1, §2, §3, §4, §5, §6, §7, §8, §9, §10

The target of another assay is T3, AKT3 (Homo sapiens, UniProt Q9Y243).
T3 construct: purchased SignalChem
T3 sequence (Q9Y243 whole entry): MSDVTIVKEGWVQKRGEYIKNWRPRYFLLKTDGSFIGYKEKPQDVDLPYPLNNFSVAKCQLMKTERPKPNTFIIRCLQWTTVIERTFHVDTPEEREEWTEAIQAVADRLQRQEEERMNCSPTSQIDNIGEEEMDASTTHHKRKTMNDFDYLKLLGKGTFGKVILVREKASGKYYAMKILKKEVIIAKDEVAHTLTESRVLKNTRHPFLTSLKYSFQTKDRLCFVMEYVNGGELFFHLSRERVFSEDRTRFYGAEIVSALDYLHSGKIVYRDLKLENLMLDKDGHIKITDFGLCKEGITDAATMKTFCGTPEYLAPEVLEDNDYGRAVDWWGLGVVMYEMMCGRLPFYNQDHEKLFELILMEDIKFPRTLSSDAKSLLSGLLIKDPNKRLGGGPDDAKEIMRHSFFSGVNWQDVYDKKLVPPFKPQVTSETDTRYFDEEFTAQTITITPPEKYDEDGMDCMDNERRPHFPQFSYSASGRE
The assay is described as follows: AKT Kinase Assay (IMAP fluorescent polarisation) vs AKT3. Particulars: activated AKT3, FAM Crosstide substrate. The method, then: as §1, §2, §3, §4, §5, §6, §7, §8, §9, §10

T1 sequence (P31749 whole entry): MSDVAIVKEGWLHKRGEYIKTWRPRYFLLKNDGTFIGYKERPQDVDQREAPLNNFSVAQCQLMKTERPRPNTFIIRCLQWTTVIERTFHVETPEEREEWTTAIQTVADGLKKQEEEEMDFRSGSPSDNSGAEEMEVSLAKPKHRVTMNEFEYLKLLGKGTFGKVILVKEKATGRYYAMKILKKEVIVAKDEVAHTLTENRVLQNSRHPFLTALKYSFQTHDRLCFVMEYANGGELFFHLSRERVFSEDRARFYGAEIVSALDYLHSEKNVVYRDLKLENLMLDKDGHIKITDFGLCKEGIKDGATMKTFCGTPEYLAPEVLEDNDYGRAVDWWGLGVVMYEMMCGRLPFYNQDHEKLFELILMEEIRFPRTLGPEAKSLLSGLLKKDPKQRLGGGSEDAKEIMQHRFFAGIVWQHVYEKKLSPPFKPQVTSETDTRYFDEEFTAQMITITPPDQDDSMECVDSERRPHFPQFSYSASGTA

By pIC50 is commonly meant the negative decadic logarithm of the IC50, by convention in mol/L. `NC1(c2ccc(-c3c(-c4ccccc4)oc4cc(Br)ccc4c3=O)cc2)CCC1` [Example 13, 3-[4-(1-Amino-cyclobutyl)-phenyl]-2-phenyl-7-bromo-chromen-4-one]: the pIC50 is 5.00 to 6.00 at AKT1, 5.00 to 6.00 at AKT2 and under 5.00 at AKT3.
`NC1(c2ccc(-c3c(-c4ccccc4)oc4c(N5CCOCC5)cccc4c3=O)cc2)CCC1` [Example 72, 3-[4-(1-Amino-cyclobutyl)-phenyl]-8-morpholin-4-yl-2-phenyl-chromen-4-one hydrochloride]: the pIC50 on AKT1 is at least 6.00; at AKT2, 5.00 to 6.00; at AKT3, under 5.00.
In the same order, the values of `NC1(c2ccc(-c3c(-c4ccccc4)oc4c(C(=O)O)cccc4c3=O)cc2)CCC1` [Example 107, 3-[4-(1-Amino-cyclobutyl)-phenyl]-4-oxo-2-phenyl-4H-chromene-8-carboxylic acid. trifluoro-acetic acid] are 5.00 to 6.00, under 5.00 and under 5.00.
In the same order, the values of `CC(C)n1cc2ccc3c(=O)c(-c4ccc(C5(N)CCC5)cc4)c(-c4ccccc4)oc3c2n1` [Example 84, 7-[4-(1-Amino-cyclobutyl)-phenyl]-2-isopropyl-8-phenyl-2H-9-oxa-1,2-diaza-cyclopenta[a]naphthalen-6-one hydrochloride] are at least 6.00, at least 6.00 and 5.00 to 6.00.
In the same order, the values of `Cn1ncc2ccc3c(=O)c(-c4ccc(C5(N)CCC5)cc4)c(-c4ccccc4)oc3c21` [Example 58, 7-[4-(1-Amino-cyclobutyl)-phenyl]-1-methyl-8-phenyl-1H-9-oxa-1,2-diaza-cyclopenta[a]naphthalen-6-one] are at least 6.00, at least 6.00 and 5.00 to 6.00.
Consider `NC1(c2ccc(-c3c(-c4ccccc4)oc4c(Oc5ccccn5)nccc4c3=O)cc2)CCC1` [Example 103, 3-[1-(1-Amino-cyclobutyl)-phenyl]-2-phenyl-8-(pyridin-2-yloxy)-pyrano[2,3-c]pyridin-4-one hydrochloride], for which the results for the pIC50 at AKT1, on AKT2 and on AKT3 were at least 6.00, 5.00 to 6.00 and under 5.00, respectively.
The like results for `COc1cc2c(=O)c(-c3ccc(C4(N)CCC4)cc3)c(-c3ccccc3)oc2cc1C#N` [Example 30, 3-[4-(1-Amino-cyclobutyl)-phenyl]-6-methoxy-4-oxo-2-phenyl-4H-chromene-7-carbonitrile] were, in that order, under 5.00, 5.00 to 6.00 and 5.00 to 6.00.
The like results for `Cn1cnc2c3oc(-c4ccccc4)c(-c4ccc(C5(N)CCC5)cc4)c(=O)c3cc(Cl)c21` [Example 62, 7-[4-(1-Amino-cyclobutyl)-phenyl]-4-chloro-3-methyl-8-phenyl-3H-chromeno[7,8-d]imidazol-6-one hydrochloride] were, in that order, at least 6.00, at least 6.00 and at least 6.00.
For `NC1(c2ccc(-c3c(-c4ccccc4)oc4c(Br)cccc4c3=O)cc2)CCC1` [Example 51, 3-[4-(1-Amino-cyclobutyl)-phenyl]-8-bromo-2-phenyl-chromen-4-one], the negative logarithm of the IC50 (pIC50) on AKT1, at AKT2 and on AKT3 was at least 6.00 in each case.
As for `NC1(c2ccc(-c3c(-c4ccccc4)oc4cc(-c5ccn[nH]5)ccc4c3=O)cc2)CCC1` [Example 17], the pIC50 at AKT1 was under 5.00; at AKT2, 5.00 to 6.00; at AKT3 it was under 5.00.
As for `NC1(c2ccc(-c3c(-c4ccccc4)oc4c(OCCO)nccc4c3=O)cc2)CCC1` [Example 125, 3-(4-(1-aminocyclobutyl)phenyl)-8-(2-hydroxyethoxy)-2-phenyl-4H-pyrano[2,3-c]pyridin-4-one], the figures for the pIC50 at AKT1, on AKT2 and on AKT3 were at least 6.00, 5.00 to 6.00 and under 5.00, respectively.
With `NC(=O)c1ccc2c(=O)c(-c3ccc(C4(N)CCC4)cc3)c(-c3ccccc3)oc2c1` [Example 18, 3-[4-(1-Amino-cyclobutyl)-phenyl]-4-oxo-2-phenyl-4H-chromene-7-carboxylic acid amide], the pIC50 on AKT1 is under 5.00; at AKT2, 5.00 to 6.00; on AKT3 it was under 5.00.
Take `NC1(c2ccc(-c3c(-c4ccccc4)oc4c(-c5ccccc5)nccc4c3=O)cc2)CCC1` [Example 124, 3-(4-(1-aminocyclobutyl)phenyl)-2,8-diphenyl-4H-pyrano[2,3-c]pyridin-4-one]: the values for the pIC50 at AKT1, on AKT2 and at AKT3 were at least 6.00, 5.00 to 6.00 and 5.00 to 6.00, respectively.
For the compound `Cc1c(-c2cccc3c(=O)c(-c4ccc(C5(N)CCC5)cc4)c(-c4ccccc4)oc23)cnn1C` [Example 75, 3-[4-(1-Amino-cyclobutyl)-phenyl]-8-(1,5-dimethyl-1H-pyrazol-4-yl)-2-phenyl-chromen-4-one hydrochloride], the pIC50 was at least 6.00 on AKT1, at least 6.00 on AKT2 and 5.00 to 6.00 at AKT3.
Take `NC1(c2ccc(-c3c(-c4ccccc4)oc4c5c(ccc4c3=O)OCC(=O)N5)cc2)CCC1` [Example 109, 8-(4-(1-aminocyclobutyl)phenyl)-9-phenylchromeno[7,8-b][1.4]oxazine-2,7(1H,3H)-dione]: the results for the pIC50 on AKT1, on AKT2 and on AKT3 were at least 6.00, 5.00 to 6.00 and 5.00 to 6.00, respectively.
For the compound `COc1cc2oc(-c3ccccc3)c(-c3ccc(C4(N)CCC4)cc3)c(=O)c2cc1C` [Example 7, 3-[4-(1-Amino-cyclobutyl)-phenyl]-7-methoxy-6-methyl-2-phenyl-chromen-4-one], the figures for the negative logarithm of the IC50 (pIC50) on AKT1, at AKT2 and at AKT3 were 5.00 to 6.00, 5.00 to 6.00 and under 5.00, respectively.
Take `COc1ccc2c(=O)c(-c3ccc(C4(N)CCC4)cc3)c(-c3ccccc3)oc2c1-c1cn[nH]c1` [Example 79, 3-[4-(1-Amino-cyclobutyl)-phenyl]-7-methoxy-2-phenyl-8-(1H-pyrazol-4-yl)-chromen-4-one]: the pIC50 on AKT1, on AKT2 and on AKT3 was at least 6.00 each time.
Regarding `NC1(c2ccc(-c3c(-c4ccccc4)oc4c(ccn5c(=O)[nH]nc45)c3=O)cc2)CCC1` [Example 63, 7-[4-(1-Amino-cyclobutyl)-phenyl]-8-phenyl-2H-9-oxa-1,2,3a-triaza-cyclopenta[a]naphthalene-3,6-dione hydrochloride], the pIC50 at AKT1, at AKT2 and on AKT3 was at least 6.00 in each case.
`COc1cc2c(=O)c(-c3ccc(C4(N)CCC4)cc3)c(-c3ccccc3)oc2cc1C` [Example 6, 3-[4-(1-Amino-cyclobutyl)-phenyl]-6-methoxy-7-methyl-2-phenyl-chromen-4-one]: the pIC50 at AKT1 was under 5.00; on AKT2, 5.00 to 6.00; on AKT3, under 5.00.
For the compound `Cc1nc2ccc3c(=O)c(-c4ccc(C5(N)CCC5)cc4)c(-c4ccccc4)oc3c2[nH]1` [Example 89, 7-[4-(1-Amino-cyclobutyl)-phenyl]-2-methyl-8-phenyl-1H-chromeno[7,8-d]imidazol-6-one], the figures for the pIC50 at AKT1, on AKT2 and at AKT3 were at least 6.00, at least 6.00 and 5.00 to 6.00, respectively.
Take `NC1(c2ccc(-c3c(-c4ccccc4)oc4c(ccc5nc[nH]c54)c3=O)cc2)CCC1` [Example 45, 7-[4-(1-Amino-cyclobutyl)-phenyl]-8-phenyl-1H-chromeno[7,8-d]imidazol-6-one.TFA]: the negative-log IC50 (pIC50) on AKT1 is 5.00 to 6.00; on AKT2, at least 6.00; on AKT3, 5.00 to 6.00.
